For 46 molecules, activation (light induction) and AC40 results are on record in PubChem BioAssay AID686929 (Broad Institute, 2013).

Values joined by “and” are separate entries in the source; they are usually repeats but may differ in a detail not shown here. Equal entries are not always repeated. Active and inactive are the calls of the source. How the calls were made is not given here. A value given as a limit tells only on which side of the number the result lay.

A short description of experiment [1]: V. cholerae BH1578 lux luminescence induction, luxS cqsA deficient, confirmatory dose response (AID 686929). As to conditions: V. cholerae BH1578 lux luminescence induction, 6 h.
Experiment [2] deals with V. cholerae BH1578 lux luminescence induction, 6 h. The description is as above.

Take `O=C1C(=O)N(Cc2cccc(Cl)c2)c2ccccc21`: the activation (light induction) in experiment [1] (at 80 µM (top of the series)) is 0.001% (inactive). As for `O=c1[nH]cnc2ccccc12`, in experiment [1] (at 80 µM (top of the series)), the activation (light induction) is 0.008% (inactive). For `CCc1nc(=O)c2ccccc2n1-c1cccc(Cl)c1`, in experiment [1] (at 80 µM (top of the series)), the activation (light induction) is 0.156% (inactive).

With `CCc1ccc2cc3c(NC(=O)c4ccco4)nn(C)c3nc2c1`, in experiment [2], the AC40 is 52.1 µM.

Consider `Cc1ccc2cc3c(NC(=O)c4ccoc4)nn(C)c3nc2c1`, for which the activation (light induction) in experiment [1] (at 80 µM (top of the series)) is 0.289% (inactive). With `O=C(Nc1nnc(-c2ccc3c(c2)OCCO3)o1)C1CCCCCC1`, in experiment [2], the AC40 was 11.8 µM.

As to `Cn1nc(NC(=O)c2ccco2)c2cc3ccccc3nc21`, the AC40 in experiment [2] is 6.9 µM.

`O=C(Cc1ccc(-c2ccccc2)cc1)N[C@@H]1CCOC1` (racemic): the activation (light induction) in experiment [1] (at 100 µM (top of the series)) was 12.2% (inactive). With `O=c1ncn(-c2cc(Cl)cc(Cl)c2)c2ccccc12`, the AC40 in experiment [2] was > 80 µM (inactive). As to `O=c1ncn(Cc2ccc(Cl)cc2)c2ccccc12`, the activation (light induction) in experiment [1] (at 80 µM (top of the series)) was 0.035% (inactive).

Regarding `Cc1ccc2cc3c(NC(=O)c4cc5ccccc5o4)nn(C)c3nc2c1`, the activation (light induction) in experiment [1] (at 100 µM (top of the series)) is -0.011% (inactive). On to `O=C(CC1CCCCC1)Nc1nnc(-c2cccnc2)o1`, for which the activation (light induction) in experiment [1] (at 80 µM (top of the series)) is -0.004% (inactive). `NC(=O)c1ccccc1Nc1ccccc1`: the activation (light induction) in experiment [1] (at 80 µM (top of the series)) is 0.096% (inactive).

Take `O=C(CSc1nc2c(c(=O)[nH]1)CCCC2)NC1CCCCC1`: in experiment [1] (at 80 µM (top of the series)), the activation (light induction) is 0.02% (inactive). As for `COC(=O)c1ccccc1Nc1cccc(Cl)c1`, in experiment [1] (at 80 µM (top of the series)), the activation (light induction) was 0.155% (inactive). As to `O=C(Nc1nnc(-c2cccc(Cl)c2)o1)C1CCCCC1`, in experiment [1] (at 80 µM (top of the series)), the activation (light induction) is 0.048% (inactive). Take `CCCCCCCCCC(=O)C(O)CC` (stereo unspecified): in experiment [2], the AC40 is 3.81 µM.

For the molecule `O=S(=O)(Nc1nnc(-c2ccc3c(c2)OCCO3)o1)c1ccc(Cl)cc1`, the activation (light induction) in experiment [1] (at 100 µM (top of the series)) is -0.005% (inactive).

As for `Cc1cc(F)cc2nc3c(cc12)c(NC(=O)c1ccco1)nn3C`, the AC40 in experiment [2] was 83.3 µM. As to `c1ccc(CNc2nnc(-c3ccc4c(c3)OCCO4)o2)cc1`, the activation (light induction) in experiment [1] (at 100 µM (top of the series)) is 0.008% (inactive). With `COc1ccc2c(=O)ncn(-c3cccc(Cl)c3)c2c1`, in experiment [1] (at 80 µM (top of the series)), the activation (light induction) is 0.008% (inactive).

Consider `CN(C)/C=N/c1nnc(-c2ccc3c(c2)OCCO3)o1`, for which the activation (light induction) in experiment [1] (at 100 µM (top of the series)) is 0.03% (inactive).

As for `CCn1nnnc1/N=C/c1ccc(N2CCCCC2)cc1`, in experiment [1] (at 100 µM (top of the series)), the activation (light induction) was 0.106% (inactive). For `CC(C)(C)COC(=O)CSc1n[nH]c(=O)[nH]c1=O`, the AC40 in experiment [2] was 8.89 µM.

`Cc1cccc(-n2cnc(=O)c3ccccc32)c1`: the activation (light induction) in experiment [1] (at 80 µM (top of the series)) was 6.74% (inactive). Regarding `O=C(Nc1nnc(-c2ccc3c(c2)OCCO3)o1)C(F)(F)c1ccccc1`, the activation (light induction) in experiment [1] (at 100 µM (top of the series)) is -0.005% (inactive).

Consider `Cc1ccc2cc3c(NC(=O)c4ccccn4)nn(C)c3nc2c1`, for which the activation (light induction) in experiment [1] (at 100 µM (top of the series)) was -0.008% (inactive). For `Cc1cc2nc3c(cc2cc1F)c(NC(=O)c1ccco1)nn3C`, the AC40 in experiment [2] was 25.3 µM. With `O=C(Nc1nnc(-c2cccnc2)o1)C1CCCCC1`, in experiment [1] (at 100 µM (top of the series)), the activation (light induction) is 3.01% (inactive). Take `COc1cccc(-n2cnc(=O)c3ccccc32)c1`: the activation (light induction) in experiment [1] (at 80 µM (top of the series)) was 0.108% (inactive). `Cc1ccc2cc3c(NC(=O)c4ccco4)nn(C)c3nc2c1`: the AC40 in experiment [2] was 10.4 µM and 54.6 µM. On to `O=C(Nc1nnc(C2CCCC2)o1)C1CCCCC1`, for which the activation (light induction) in experiment [1] (at 100 µM (top of the series)) was -0.004% (inactive). Take `O=C(Nc1nnc(-c2cccnc2)o1)C1CCC1`: the activation (light induction) in experiment [1] (at 100 µM (top of the series)) was 0% (inactive). Same read-out and setting: to `Cn1nc(NC(=O)c2ccco2)c2ccccc21` belongs 0.203% (inactive); to `CCn1nnnc1N`, 0.004% (inactive). `COc1ccccc1-c1nnc(NC(=O)C2CCCCC2)o1`: in experiment [2], the AC40 is > 100 µM (inactive). For `O=c1ncn(-c2ccccc2)c2ccccc12`, the activation (light induction) in experiment [1] (at 80 µM (top of the series)) was 4.58% (inactive). For `O=C1C(=O)N(Cc2ccccc2Cl)c2ccccc21`, the activation (light induction) in experiment [1] (at 80 µM (top of the series)) is 0.156% (inactive). Consider `O=C(Nc1nnc(-c2ccc3c(c2)CCCC3)o1)C1CCC1`, for which the activation (light induction) in experiment [1] (at 80 µM (top of the series)) was -0.004% (inactive). As to `COc1cccc(-c2nnc(NC(=O)C3CCCCC3)o2)c1`, the activation (light induction) in experiment [1] (at 100 µM (top of the series)) was 0% (inactive). As to `Cc1ccc2c(=O)ncn(-c3cccc(Cl)c3)c2c1`, in experiment [1] (at 80 µM (top of the series)), the activation (light induction) was 0.023% (inactive).

Consider `O=C(Nc1nnc(-c2ccccc2Cl)o1)C1CCCCC1`, for which, in experiment [1] (at 100 µM (top of the series)), the activation (light induction) is 0.002% (inactive). Regarding `Cc1nc(=O)c2ccccc2n1-c1cccc(Cl)c1`, in experiment [1] (at 80 µM (top of the series)), the activation (light induction) was 9.66% (inactive). On the same count and under the same terms, as for `O=c1ncn(-c2ccc(Cl)cc2)c2ccccc12`, the figure is 0.027% (inactive). For `O=C(Cc1ccc(-c2ccccc2)cc1)NC1COC1`, the activation (light induction) in experiment [1] (at 100 µM (top of the series)) is 1.9% (inactive). Take `Cn1cnc(=O)c2ccccc21`: the activation (light induction) in experiment [1] (at 80 µM (top of the series)) is 0.023% (inactive).
